Experiment [1] relates to ADC-172 in DH10B Escherichia coli. Nature of the experiment: MIC by broth microdilution, ADC-172 in DH10B E. coli. It is filed as cell-based. Particulars: Escherichia coli; DH10B E. coli expressing ADC-172 (Adup) from pBCSK−; FDC in iron-depleted cation-adjusted MH broth; mode of triplicate; read-out: MIC. The method, then:
(§1) Susceptibility testing to standard antibiotics was performed by broth microdilution according to 2024 Clinical and Laboratory Standards Institute (CLSI) guidelines ([38]). MICs for FDC were done in iron-depleted cation-adjusted Mueller-Hinton (MH) broth according to CLSI methods. All MICs were interpreted according to the 2024 CLSI guidelines ([38]). MICs are done in triplicate, and the mode MIC value is reported.
(§2) blaADC-7 pBCSK− was cloned and expressed in E. coli DH10B cells as previously described for MIC determinations ([3]). The pBCSK-non-inducible phagemid vector has a chloramphenicol resistance gene used to aid selection. All other blaADC variants were synthesized by GenScript according to the blaADC-7 pBCSK− strategy, cloning into the XbaI/BamHI sites of the pBCSK− vector ([5]).
(In general: In broth dilution the organism is exposed to a series of concentrations in liquid medium.)

Experiment [2] concerns the target T1, ADC-33 (Acinetobacter baumannii, UniProt A7Y407). The experiment can be described thus: Timed electrospray ionization mass spectrometry of acylated adducts, ADC-33. As to conditions: ADC-33, incubation 30 s–1 h; enzyme:substrate 1:25. It is filed as binding. The method, then:
(§3) β-Lactamase (5 µg) was incubated with substrate at a molar ratio of 1:25 (FDC, CAZ, meropenem [MEM]) in sterile 10 mM PBS, pH 7.4, for a total reaction volume of 20 µL (t = 30 s, 1 min, 15 min, 30 min, 1 h, 2 h, and 24 h). Reactions were quenched with 1% acetonitrile and 0.1% formic acid. Samples were analyzed using Q-TOF Waters Synapt-G2-Si and a Waters Acquity ultrapressure liquid chromatography BEH C18 column (1.7 µm […]; 2.1 × 50 mm). MassLynx v.4.1 was used to deconvolute protein peaks. The tune settings for each data run were as follows: capillary voltage at 3.5 kV, sampling cone at 35, source offset at 35, source temperature 100°C, desolvation temperature 500°C, cone gas at 100 L/h, desolvation gas at 800 L/h, and nebulizer bar at 6.0. Mobile phase A was 0.1% formic acid-water. Mobile phase B was 0.1% formic acid-acetonitrile. The mass accuracy for this system is ±5 Da. Mass spectrometry experiments were performed once over a range of time points.

In experiment [3] the test system is ADC-218 in DH10B Escherichia coli. The experiment can be described thus: MIC by broth microdilution, ADC-218 in DH10B E. coli. The experiment is classed as cell-based. As to conditions: DH10B E. coli expressing ADC-218 (Adup) from pBCSK−, FDC in iron-depleted cation-adjusted MH broth, mode of triplicate. The procedure:
as §1, §2

In experiment [4] the target is ADC-143 (Acinetobacter baumannii, UniProt Q6DRA1, Q144K, form not given). The experiment can be described thus: Competition kinetics with nitrocefin (Ki), ADC-143. It is filed as biochemical. As to conditions: 3 min pre-incubation, Cheng-Prusoff corrected. The procedure: (§4) For inhibition kinetics, utilizing NCF as a colorimetric substrate of ADCs, the inhibition constant (Ki) of CAZ and FDC with ADCs was determined using competition kinetics as previously described ([5]). After a 3 min pre-incubation of the enzyme (2 nM) with increasing concentration of the inhibitor, measurements of the initial velocities were performed with the addition of 100–200 µM NCF (twofold of the experimentally determined KM value). To determine the average velocities (v0), data from three experiments were fit to the followingequation: […]
(§5) where vu represents the NCF uninhibited velocity and IC50 represents the inhibitor concentration that results in a 50% reduction of vu. The Ki value was corrected for the NCF affinity (KM values for each ADC) with the Cheng-Prusoff ([5]) equation: […]
(§6) The standard error for Ki values was generated by factoring in the larger of the proportional standard errors for the individual IC50 value and the KM -NCF value.

For experiment [5], the target named is T1, ADC-33. The experiment can be described thus: Competition kinetics with nitrocefin (Ki), ADC-33. It is filed as biochemical. As to conditions: 3 min pre-incubation, Cheng-Prusoff corrected. The method, then: as §4, §5, §6
Experiment [6] concerns the target ADC-7 (Acinetobacter baumannii, UniProt Q6DRA1). The experiment can be described thus: Competition kinetics with nitrocefin (Ki), ADC-7. It is filed as biochemical. Particulars: 3 min pre-incubation, Cheng-Prusoff corrected. The procedure:
as §4, §5, §6

In experiment [7] the test system is DH10B Escherichia coli pBCSK− no insert. The experiment can be described thus: MIC by broth microdilution, DH10B E. coli with pBCSK− no insert. The experiment is classed as cell-based. As to conditions: DH10B E. coli with pBCSK− no insert (control strain), FDC in iron-depleted cation-adjusted MH broth. The method, then:
as §1, §2

In experiment [8] the test system is ADC-219 in DH10B Escherichia coli. The experiment can be described thus: MIC by broth microdilution, ADC-219 in DH10B E. coli. The experiment is classed as cell-based. As to conditions: DH10B E. coli expressing ADC-219 (Adup) from pBCSK−, FDC in iron-depleted cation-adjusted MH broth, mode of triplicate. The procedure:
as §1, §2

Experiment [9] addresses T2, ADC-30 (Acinetobacter baumannii, UniProt A7XM81). The experiment can be described thus: Timed electrospray ionization mass spectrometry of acylated adducts, ADC-30. It is filed as binding. As to conditions: ADC-30, +468 Da adduct, at 1 h; enzyme:substrate 1:25. The procedure: as §3
For experiment [10], the target named is T2, ADC-30. Nature of the experiment: Competition kinetics with nitrocefin (Ki), ADC-30. The experiment is classed as biochemical. As to conditions: 3 min pre-incubation, Cheng-Prusoff corrected. The procedure:
as §4, §5, §6

The test system of experiment [11] is ADC-30 in DH10B Escherichia coli. Nature of the experiment: MIC by broth microdilution, ADC-30 in DH10B E. coli. It is filed as cell-based. As to conditions: DH10B E. coli expressing ADC-30 (non-Adup) from pBCSK−, FDC in iron-depleted cation-adjusted MH broth, mode of triplicate. The method, then: as §1, §2
For experiment [12], the target named is T1, ADC-33. Nature of the experiment: Steady-state hydrolysis kinetics, ADC-33. It is filed as biochemical. The procedure:
Steady-state kinetic parameters were determined by combining pure enzyme with antibiotic substrates in 50 mM NaH2PO4, pH 7.4, at room temperature. Changes in absorbance were measured on the Cary 60 UV−Vis spectrophotometer (Agilent Technologies) and converted to velocity using the change in extinction coefficient specific to nitrocefin (NCF) (ε482 = 17,400 M^−1·cm^−1), CAZ (ε260 8,660 M^−1·cm^−1), and cefiderocol (ε259 9,430 M^−1·cm^−1). The concentration of enzyme ranged from 0.1 to 1.0 µM, and all kinetic experiments were performed at least in triplicate. Initial velocities were fitted to the Michaelis-Menten equation, yielding kcat and KM values. The standard error for kcat/KM values was generated by factoring in the larger of the proportional standard errors for the individual kcat value and the KM value. For ADC/substrate combinations in which the KM was too large to accurately determine both kcat and KM values, the initial velocities at kcat/KM values were calculated from linear fits of vo in low [S] ranges (<0.08 * KM).

The values below come from paper PMC12153338, “Resistance to oxyimino-cephalosporins conferred by an alternative mechanism of hydrolysis by the Acinetobacter-derived cephalosporinase-33 (ADC-33), a class C β-lactamase present in carbapenem-resistant Acinetobacter baumannii (CRAb)” (mBio, 2025).

Values after ≈ are worked out from the molar mass of the structure shown.

The MIC is the lowest concentration that inhibits growth of the organism. As usually defined, the Ki is a dissociation constant, usually derived from enzyme kinetics or from competition with a known ligand. As to `CC(C)(O/N=C(\C(=O)N[C@@H]1C(=O)N2C(C(=O)[O-])=C(C[n+]3ccccc3)CS[C@H]12)c1csc(N)n1)C(=O)O` [CAZ, ceftazidime], the MIC is 1020 µg/mL (≈ 1870 µM) in experiment [1]; 2050 µg/mL (≈ 3750 µM) in experiment [3]; 0.25 µg/mL (≈ 0.457 µM) in experiment [7]; 64 µg/mL (≈ 117 µM) in experiment [8]; 64 µg/mL (≈ 117 µM) in experiment [11]. The “formation of stable acyl-enzyme adduct” value in [2] was “did not form a stable acyl-enzyme adduct”. Also, the inhibitory constant (Ki) worked out at 47.8 ± 3.34 µM in experiment [4], 28.4 ± 2.09 µM in [5], 2.1 ± 0.25 µM in [6] and 3.23 ± 0.31 µM in [10]. In [9], the “percentage of acylated adduct” value came out at 20%. For the same molecule, the “fold higher kcat/KM for CAZ versus FDC” value in experiment [12] is given as ~ 10 fold.
